For series [1] the following is noted: prior-art NO-releasing small molecules; cited from earlier work.

The source of these data is patent US8062653B2, “Controlled release of nitric oxide and drugs from functionalized macromers and oligomers” (Bezwada Biomedical, LLC, priority 2009, dated 2011).

The term melting point denotes the temperature, or range, at which the solid turns liquid. Consider `O=C(CCCCCO[N+](=O)[O-])Oc1ccc(-c2coc3cc(OC(=O)CCCCCO[N+](=O)[O-])ccc3c2=O)cc1`, for which the melting point lay in the range of 100 to 102 °C.

Turning to `CC(C)(SN=O)C(N)C(=O)O` (racemic) [S-nitroso-D,L-penicillamine], the “lifetime in physiological solution” value in series [1] was “no more than about an hour”.

For the compound `N[C@@H](CSN=O)C(=O)O` [S-nitrosocysteine], the “lifetime in physiological solution” value in series [1] was “no more than about an hour”.
